From article PMC4150253 (ChemMedChem, 2014)

Columns and labels:
Format in all cases: biochemical
FL-Tip60 (1-512 aa) = FL-Tip60 (1-512 aa) (Homo sapiens, UniProt Q92993); assay: Radiometric filter binding HAT assay, full-length Tip60
CAT-Tip60 (221-512 aa) = CAT-Tip60 (221-512 aa) (Homo sapiens, UniProt Q92993); assay: Radiometric filter binding HAT assay, Tip60 catalytic domain
[1] = molecular target: PCAF HAT domain (493-658) (Homo sapiens, UniProt Q92831); assay: Radiometric HAT assay, PCAF HAT domain
Chain of PCAF HAT domain (493-658) (Q92831 493-658): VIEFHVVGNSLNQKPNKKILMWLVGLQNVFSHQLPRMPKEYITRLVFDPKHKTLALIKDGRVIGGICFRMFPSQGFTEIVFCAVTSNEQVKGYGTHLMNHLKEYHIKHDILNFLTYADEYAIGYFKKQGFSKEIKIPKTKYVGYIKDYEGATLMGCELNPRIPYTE

Chain of FL-Tip60 (1-512 aa) (Q92993 1-512): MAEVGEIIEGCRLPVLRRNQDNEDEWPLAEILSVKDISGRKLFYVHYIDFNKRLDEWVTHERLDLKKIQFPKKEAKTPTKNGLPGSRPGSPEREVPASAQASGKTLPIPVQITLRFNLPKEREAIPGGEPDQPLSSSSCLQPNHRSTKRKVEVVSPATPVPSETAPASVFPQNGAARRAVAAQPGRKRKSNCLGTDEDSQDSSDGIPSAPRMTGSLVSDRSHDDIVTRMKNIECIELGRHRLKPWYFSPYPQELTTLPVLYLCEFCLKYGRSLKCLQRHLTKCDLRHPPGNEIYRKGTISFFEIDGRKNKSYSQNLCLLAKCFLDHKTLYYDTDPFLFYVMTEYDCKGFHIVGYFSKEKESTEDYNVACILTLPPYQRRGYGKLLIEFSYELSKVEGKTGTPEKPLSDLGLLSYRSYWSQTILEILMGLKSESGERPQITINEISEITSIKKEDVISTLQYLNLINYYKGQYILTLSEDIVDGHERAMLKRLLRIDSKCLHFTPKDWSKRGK
Chain of CAT-Tip60 (221-512 aa) (Q92993 221-512): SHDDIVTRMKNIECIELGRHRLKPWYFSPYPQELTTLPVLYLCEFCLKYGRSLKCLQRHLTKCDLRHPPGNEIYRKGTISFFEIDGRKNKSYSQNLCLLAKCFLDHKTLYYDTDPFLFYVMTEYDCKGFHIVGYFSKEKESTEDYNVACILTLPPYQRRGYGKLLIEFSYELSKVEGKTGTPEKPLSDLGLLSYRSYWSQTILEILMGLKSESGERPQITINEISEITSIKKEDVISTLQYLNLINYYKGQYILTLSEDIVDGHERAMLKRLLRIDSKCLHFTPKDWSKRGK

- IC50 (FL-Tip60 (1-512 aa)): 9.1 ± 1 µM
- IC50 (CAT-Tip60 (221-512 aa)): 16 ± 3.1 µM
- IC50 [1]: 8.4 ± 0.4 µM
SMILES: CC(C)(COP(=O)(O)OP(=O)(O)OC[C@H]1O[C@@H](n2cnc3c(N)ncnc32)[C@H](O)[C@@H]1OP(=O)(O)O)[C@@H](O)C(=O)NCCC(=O)NCCS [CoASH]
